Reference: the NIST ThermoML archive (doi:10.1016/j.tca.2015.05.023)
± gives the expanded uncertainty stated by the source.

Assays:
[1] = Molar enthalpy of transition or fusion; conditions: Crystal; DSC
[2] = Crystal; DTA

Which results are given for `O=[N+]([O-])[O-].[Na+]` [sodium nitrate]?
Molar enthalpy of transition or fusion [1]: 3.84 ± 0.122 kcal/mol; Triple point temperature [2]: 581.15 ± 1 K
